Measured values reported in the NIST ThermoML archive (doi:10.1021/acs.jced.5b00784).

Columns and labels:
[1] = xn = mol fraction of the nth substance listed; conditions: Liquid, Vibrating tube method, x2 = 0.377
[2] = Liquid, isochoric method

COC(F)(F)C(F)(C(F)(F)F)C(F)(F)F [methyl nonafluoroisobutyl ether] + COC(F)(F)C(F)(F)C(F)(F)C(F)(F)F
[1]
Conditions	mass density [kg/m3]
275.02 K, 1984 kPa	1579.6
277.09 K, 3723 kPa	1579.2
279.26 K, 5543 kPa	1578.7
279.43 K, 273 kPa	1564.5
279.75 K, 524 kPa	1564.4
279.75 K, 527 kPa	1564.4
280.37 K, 972 kPa	1563.7
280.46 K, 1101 kPa	1564.3
280.94 K, 1442 kPa	1564.2
281.34 K, 7289 kPa	1578.3
281.55 K, 1942 kPa	1563.5
281.92 K, 2278 kPa	1564
281.94 K, 2249 kPa	1564
282.38 K, 2648 kPa	1563.9
283.21 K, 3315 kPa	1563.7
283.5 K, 9101 kPa	1577.9
283.65 K, 3673 kPa	1563.6
284.04 K, 3949 kPa	1563.6
284.44 K, 4290 kPa	1563.5
285.1 K, 4838 kPa	1563.3
285.42 K, 5083 kPa	1563.3
285.49 K, 10769 kPa	1577.5
285.94 K, 5471 kPa	1563.2
286.26 K, 5744 kPa	1563.1
286.26 K, 5757 kPa	1563.1
286.61 K, 5994 kPa	1562.5
286.95 K, 6330 kPa	1562.9
287.26 K, 6535 kPa	1562.3
287.54 K, 6765 kPa	1562.9
287.54 K, 6789 kPa	1562.9
287.59 K, 12510 kPa	1577.1
287.68 K, 6872 kPa	1562.8
288.04 K, 7178 kPa	1562.8
288.9 K, 7893 kPa	1562.5
289.56 K, 14156 kPa	1576.7
289.6 K, 8425 kPa	1562.5
289.6 K, 8448 kPa	1562.5
289.6 K, 8462 kPa	1562.2
289.72 K, 8502 kPa	1562.4
291.62 K, 15869 kPa	1576.2
291.67 K, 10052 kPa	1562
291.67 K, 10070 kPa	1562
291.67 K, 10101 kPa	1562
292.61 K, 10815 kPa	1561.9
292.7 K, 10872 kPa	1561.2
293.44 K, 11481 kPa	1561.7
293.52 K, 17446 kPa	1575.9
294.31 K, 12183 kPa	1561.5
295.32 K, 12982 kPa	1561.3
295.59 K, 19153 kPa	1575.4
296.29 K, 13751 kPa	1561.1
298.57 K, 15560 kPa	1560.7
299.64 K, 16411 kPa	1560.5
300.65 K, 17215 kPa	1560.3
301.34 K, 17761 kPa	1560.1
302.6 K, 18751 kPa	1559.9
302.6 K, 18786 kPa	1559.9

FC(C(F)(F)F)C(F)(F)F [1,1,1,2,3,3,3-heptafluoropropane]
[2]
Conditions	mass density [kg/m3]
268.92 K, 1786 kPa	1509.3
271.83 K, 3840 kPa	1508.5
274.3 K, 5598 kPa	1508.1
277.7 K, 8059 kPa	1507.7
279.51 K, 839 kPa	1466.6
280.8 K, 10284 kPa	1507.3
281.32 K, 1993 kPa	1465.2
283.42 K, 3331 kPa	1464.8
283.61 K, 12288 kPa	1507
285.37 K, 4577 kPa	1464.6
286.43 K, 1142 kPa	1441.9
286.67 K, 1203 kPa	1440.9
286.7 K, 14495 kPa	1506.7
287.36 K, 5848 kPa	1464.3
288.43 K, 2193 kPa	1440
289.14 K, 2747 kPa	1440.7
289.31 K, 16361 kPa	1506.4
289.41 K, 7162 kPa	1464.1
290.44 K, 3367 kPa	1439.5
291.46 K, 8474 kPa	1463
292 K, 4466 kPa	1440.2
292.45 K, 4875 kPa	1439.1
293.4 K, 9717 kPa	1463.7
294.61 K, 5846 kPa	1438.9
294.98 K, 6251 kPa	1439.8
295.29 K, 10924 kPa	1463.5
296.72 K, 7101 kPa	1438
297.18 K, 12136 kPa	1463.3
297.85 K, 7978 kPa	1439.5
298.7 K, 8273 kPa	1438.5
299.38 K, 13527 kPa	1463.1
300.87 K, 9562 kPa	1438.2
300.89 K, 9788 kPa	1439.2
301.4 K, 14839 kPa	1462.9
302.74 K, 10686 kPa	1438.1
302.94 K, 15829 kPa	1462.8
303.82 K, 11544 kPa	1438.9
304.8 K, 11916 kPa	1437.9
306.88 K, 13381 kPa	1438.6
306.95 K, 13205 kPa	1437.7
309 K, 14427 kPa	1437.5
310.05 K, 15281 kPa	1438.3
311.05 K, 15654 kPa	1437.3
312.85 K, 16727 kPa	1437.1
312.95 K, 17014 kPa	1438
